Earlier results as cited in patent US11033592B2, “Composition for the prevention and/or treatment of cardiovascular diseases” (priority 2016, dated 2021).

Test system: first occurrence of cardiovascular events
Details: CRESTOR 20 mg versus placebo, P<0.00001

CC(C)c1nc(N(C)S(C)(=O)=O)nc(-c2ccc(F)cc2)c1/C=C/[C@@H](O)C[C@@H](O)CC(=O)O [CRESTOR, rosuvastatin]
relative reduction in risk of a major cardiovascular event: 44%
